{"source": "paper PMC6369428", "about": "“Efflux Inhibitor Bicalutamide Increases Oral Bioavailability of the Poorly Soluble Efflux Substrate Docetaxel in Co-Amorphous Anti-Cancer Combination Therapy” (Molecules, 2019)", "key": {"[1]": {"experiment": "Dissolution studies in FaSSIF biorelevant medium", "assay_type": "physicochemical", "conditions": "37 °C", "protocol": "The concentrations of DTX and BIC were determined using a reversed-phase high-performance liquid chromatography (HPLC) system (Dionex Corporation, CA, USA) equipped with an ASI-100 autosampler, Dionex Ultimate 300 UV-Visible detector and pump. Chromatographic separation was achieved using a XB-C18 Phenomenex Kinetex column of 2.6 μm (2.1 × 50 mm) (Torrance, CA, USA) at 30 °C. The mobile-phase consisted of a mixture of A) 95% water 5% acetonitrile (ACN) and 0.1% trifluoroacetic acid (TFA) and B) 95% ACN 5% water 0.1% TFA, and was used at a flow rate of 0.5 mL/min in isocratic mode (60% A 40% B). Peaks were analysed at 270 nm for BIC and 230 nm for DTX. Linear calibration curves in the range of 0.25–5 μg/mL for both BIC and DTX were obtained in acetonitrile. Elution times were 4.8 min for BIC and 6.4 min for DTX.\nFor the dissolution studies, powder formulations were initially suspended in PBS in order to avoid powder agglomerates. Immediately after suspension, 100 µL aliquots were added to each well of a 12-well plate containing 2.9 mL dissolution medium/well. The concentrations of the drugs in the dissolution medium were 3 times higher than their respective saturation solubilities. […] The obtained samples were centrifuged at 10,000 g for 10 min and the supernatant was then analysed by HPLC (see above). […]"}, "[2]": {"experiment": "Physical stability on storage, analysed by XRPD", "assay_type": "physicochemical", "conditions": "1.5 years at 4 °C under dry conditions", "protocol": "XRPD was performed using an X’Pert PANalytical PRO X-ray diffractometer (PANalytical, Almelo, The Netherlands) using Cu Kα radiation (λ = 1.54 Å), and an acceleration voltage and current of 45 kV and 40 mA, respectively. The powder samples were scanned in reflectance mode from 5° to 35° 2ϴ with a scan speed of 0.067° 2ϴ and a step size of 0.026° 2ϴ. Data were collected and analyzed using the software X’Pert Data Collector (PANalytical, Almelo, The Netherlands).\nThe co-amorphous binary DTX-BIC mixture as well as the pure individual amorphous drugs were stored in a desiccator under dry conditions (silica gel) at 4 °C and analysed by XRPD after 1.5 years of storage."}, "[3]": {"experiment": "In vivo pharmacokinetics study in fasted rats", "parameters": "species or system Sprague Dawley rats", "conditions": "for DTX AUC / BIC AUC: mean ± SEM", "protocol": "Healthy female and male Sprague Dawley rats of 7 weeks age weighing 140–240 g (Charles River, Denmark), were used for the experiments. The rats were housed with free access to water and food in groups of two rats per cage under controlled environmental conditions (constant temperature and humidity with a 12 h day-night cycle). All animal experimental work was carried out under the protocol approved by the Danish Animal Experiments Inspectorate (approval no. 2014-15-0201-00031), and all the procedures used were refined to provide maximal comfort and minimal stress to the animals.\nAll animals were fasted for approximately 12 h prior to administration of the drug formulations and food was provided to rats approximately 6 h after drug administration, although free access to water was allowed during fasting. The nine groups studied, each consisting of 6–8 rats, were assigned randomly and included two groups receiving an intravenous bolus injection of either DTX or BIC corresponding to 1 mg/rat (4–7 mg/kg) dissolved in saline: DMSO (50:50 v/v) with 1% Tween 80, administered in the tail vein. The remaining seven groups were orally administered with DTX or BIC or a combination of these at a fixed dose of 30 mg/kg for DTX and 16 mg/kg for BIC. For DTX, four groups of animals were studied, one group administered with crystalline DTX (crystalline), one group administered with a physical mixture of crystalline DTX and BIC (physical mix), one group administered with amorphous DTX (amorphous) and one group administered with the co-amorphous mixture of DTX and BIC (co-amorphous). For BIC three groups of animals were studied, one group administered with crystalline BIC (crystalline), one groups administered with a physical mixture of crystalline DTX and BIC (physical mix) and one group administered with the co-amorphous mixture of DTX and BIC (co-amorphous). Drug powders were suspended in 0.5 mL PBS and the suspension was immediately administered to the rats using a flexible cannula. Blood samples (150–200 µL) were collected in EDTA coated tubes from puncturing of the tail vein at 0.5, 1, 2, 4, 6 and 24 h after drug administration. The rats were euthanized by cervical dislocation after collection of the final blood sample. Plasma samples were obtained by centrifugation of blood samples at 3600 g (10 min, 4 °C) and transferred into microtubes. The plasma samples were stored at −80 °C until used for further analysis.\nThe bioanalysis of DTX and BIC in rat plasma was carried out using HPLC coupled with mass spectrometric (MS) detection. Prior to analysis liquid-liquid extraction was performed on the plasma samples (50 μL) by adding 100 μL of ethyl acetate and subsequently vortexing the vial for protein precipitation. The vials were centrifuged and 100 μL supernatant was carefully transferred to HPLC vials with inserts and evaporated using compressed air. The dried content of the vial was reconstituted using 150 μL ACN:H2O (1:1 v/v) and measured by LC-MS/MS.\nLC-MS/MS analysis was performed using a 1290 Agilent Infinity Series system (Agilent Technologies, Palo Alto, CA, USA) coupled to an AB Sciex 4500 QTrap MS (Applied Biosystems, Foster City, CA, USA). A HPLC-MS method was developed for each compound. In both cases chromatographic separation was performed using a Phenomenex Kinetex (Torrance, CA, USA) C18 (50 × 2.1 mm, 2.6 μm) column with a Phenomenex C18 SecurityGuard™ Ultra (2.1 mm, 2 µm) guard column and the mobile phases consisted of (A) MilliQ water with 0.1% formic acid and (B) ACN with 0.1% formic acid. The column and autosampler tray were set at 40 °C and 6 °C, respectively, and the flow rate was set at 0.25 mL/min. The injection volume was set at 1 μL and 5 μL for BIC and DTX, respectively. For BIC, the elution gradient started at 20% B at time 0 and increased to […] at time 3.0 min. Hereafter B was held at 99% until 4.3 min before re-equilibrating the column until 5.5 min. The retention time for BIC was 3.12 min. […]"}, "[4]": {"experiment": "Saturation solubility studies in FaSSIF", "assay_type": "physicochemical", "conditions": "crystalline drugs, FaSSIF pH 6.5, after 72 h with excess drug powder", "protocol": "DTX and BIC saturation solubility studies were conducted in FaSSIF. The biorelevant FaSSIF medium was prepared by adding 218 mg bovine bile extract, 58 mg phosphatidylcholine, 232 mg Tris maleate salt and 395 mg sodium chloride to 100 mL of ultra-purified water and stirring overnight at 37 °C. The medium pH was adjusted to 6.5 with 1 M NaOH before use. Approximately 100 mg of the drugs were mixed with 1.5 mL of the media in plastic tubes, and the suspensions were rotated at 20 rpm for 72 h. The solution was separated from undissolved drug by centrifugation, and aliquots from the saturated solution were filtered through 0.45 µm polyvinylidene difluoride (PVDF) filters. The solubility may potentially have been influenced by exposure to temperature since both, centrifugation and filtration, were conducted at room temperature.\nThe concentrations of DTX and BIC were determined using a reversed-phase high-performance liquid chromatography (HPLC) system (Dionex Corporation, CA, USA) equipped with an ASI-100 autosampler, Dionex Ultimate 300 UV-Visible detector and pump. Chromatographic separation was achieved using a XB-C18 Phenomenex Kinetex column of 2.6 μm (2.1 × 50 mm) (Torrance, CA, USA) at 30 °C. […] Peaks were analysed at 270 nm for BIC and 230 nm for DTX. […]"}, "[5]": {"parameters": "method as in Valicherla et al. [19]", "conditions": "oral drug delivery strategy for DTX (self-emulsifying drug delivery system), rats, ref Valicherla et al. [19]; cited from earlier work"}, "[6]": {"parameters": "method as in Zhang et al. [20]", "conditions": "oral drug delivery strategy for DTX (cyclodextrin-based polymeric micelle), mice, ref Zhang et al. [20]; cited from earlier work"}, "[7]": {"conditions": "DTX in plasma, oral suspension, 30 mg/kg DTX, 30 mg/kg"}, "[8]": {"conditions": "oral suspension, 30 mg/kg DTX, Fa = AUCoral/AUCIV × 100, mean ± SEM, 30 mg/kg"}, "[9]": {"conditions": "intravenous bolus, 1 mg/rat (4–7 mg/kg)"}}, "note": "Where two headings read alike, the source gives them in different places."}
{"compound": "CC(O)(CS(=O)(=O)c1ccc(F)cc1)C(=O)Nc1ccc(C#N)c(C(F)(F)F)c1", "note": "(centres unmarked) [Amorphous BIC, bicalutamide]", "values": [{"measurement": "time after which the saturation solubility of BIC is reached", "setting": "[1]; BIC in FaSSIF", "result": 120, "unit": "min"}, {"measurement": "physical stability (solid state by XRPD) after storage", "setting": "[2]", "result": "recrystallized"}]}
{"compound": "CC(=O)O[C@@]12CO[C@@H]1C[C@H](O)[C@@]1(C)C(=O)[C@H](O)C3=C(C)[C@@H](OC(=O)[C@H](O)[C@@H](NC(=O)OC(C)(C)C)c4ccccc4)C[C@@](O)([C@@H](OC(=O)c4ccccc4)[C@H]21)C3(C)C", "note": "[Amorphous DTX, Docetaxel]", "values": [{"measurement": "DTX supersaturation behaviour", "setting": "[1]; DTX in FaSSIF, up to 240 min", "result": "does not supersaturate"}, {"measurement": "physical stability (solid state by XRPD) after storage", "setting": "[2]", "result": "remained amorphous"}, {"measurement": "DTX Cmax", "setting": "[3]; [7]", "result": 19, "unit": "ng/mL"}, {"measurement": "DTX Tmax", "setting": "[3]; [7]", "result": 6, "unit": "h"}, {"measurement": "DTX AUC", "setting": "[3]; [7]", "result": "518 ± 113", "unit": "ng/mL × 24h"}, {"measurement": "DTX Fa (absolute oral bioavailability)", "setting": "[3]; [8]", "result": "0.56 ± 0.12", "unit": "%"}]}
{"compound": "CC(O)(CS(=O)(=O)c1ccc(F)cc1)C(=O)Nc1ccc(C#N)c(C(F)(F)F)c1", "note": "(centres unmarked) [BIC, bicalutamide]", "values": [{"measurement": "solubility at 72 h", "setting": "[4]", "result": "3.05 ± 0.9", "unit": "µg/mL"}, {"measurement": "Cmax", "setting": "[3]; both sexes, Sprague Dawley, rat, plasma, iv, 1 mg, intravenous bolus, 1 mg/rat (4–7 mg/kg), read-out: BIC Cmax", "result": 11300, "unit": "ng/mL"}, {"measurement": "Tmax", "setting": "[3]; both sexes, Sprague Dawley, rat, plasma, iv, 1 mg, intravenous bolus, 1 mg/rat (4–7 mg/kg), read-out: BIC Tmax", "result": 0.5, "unit": "h"}, {"measurement": "BIC AUC", "setting": "[3]; [9]", "result": 317, "unit": "µg/mL × 24h"}]}
{"compound": "CC(O)(CS(=O)(=O)c1ccc(F)cc1)C(=O)Nc1ccc(C#N)c(C(F)(F)F)c1", "note": "(centres unmarked) [Crystalline BIC, bicalutamide]", "values": [{"measurement": "BIC AUC", "setting": "[3]; BIC in plasma, oral suspension, 16 mg/kg BIC", "result": "43.06 ± 4.79", "unit": "µg/mL × 24h"}, {"measurement": "Cmax", "setting": "[3]; both sexes, Sprague Dawley, rat, plasma, po, 16 mg/kg, BIC in plasma, oral suspension, 16 mg/kg BIC, read-out: BIC Cmax", "result": 1660, "unit": "ng/mL"}, {"measurement": "Tmax", "setting": "[3]; both sexes, Sprague Dawley, rat, plasma, po, 16 mg/kg, BIC in plasma, oral suspension, 16 mg/kg BIC, read-out: BIC Tmax", "result": 6, "unit": "h"}, {"measurement": "bioavailability", "setting": "[3]; both sexes, Sprague Dawley, rat, plasma, po, 16 mg/kg, BIC, oral suspension, 16 mg/kg BIC, Fa = AUCoral/AUCIV × 100, mean ± SEM, read-out: BIC Fa (absolute oral bioavailability)", "result": "14 ± 1", "unit": "%"}]}
{"compound": "CC(=O)O[C@@]12CO[C@@H]1C[C@H](O)[C@@]1(C)C(=O)[C@H](O)C3=C(C)[C@@H](OC(=O)[C@H](O)[C@@H](NC(=O)OC(C)(C)C)c4ccccc4)C[C@@](O)([C@@H](OC(=O)c4ccccc4)[C@H]21)C3(C)C", "note": "[Crystalline DTX, Docetaxel]", "values": [{"measurement": "DTX Tmax", "setting": "[3]; [7]", "result": 4, "unit": "h"}, {"measurement": "DTX Tmax", "setting": "[3]; DTX in plasma, oral suspension, 30 mg/kg DTX, listed as crystalline DTX, 30 mg/kg", "result": "around 1 h"}, {"measurement": "DTX AUC", "setting": "[3]; [7]", "result": "185 ± 29", "unit": "ng/mL × 24h"}, {"measurement": "DTX Fa (absolute oral bioavailability)", "setting": "[3]; [8]", "result": "0.20 ± 0.03", "unit": "%"}, {"measurement": "Cmax", "setting": "[3]; both sexes, Sprague Dawley, rat, plasma, po, 30 mg/kg, DTX in plasma, oral suspension, 30 mg/kg DTX, read-out: DTX Cmax", "result": 15, "unit": "ng/mL"}]}
{"compound": "CC(=O)O[C@@]12CO[C@@H]1C[C@H](O)[C@@]1(C)C(=O)[C@H](O)C3=C(C)[C@@H](OC(=O)[C@H](O)[C@@H](NC(=O)OC(C)(C)C)c4ccccc4)C[C@@](O)([C@@H](OC(=O)c4ccccc4)[C@H]21)C3(C)C", "note": "[DTX, Docetaxel]", "values": [{"measurement": "Cmax", "setting": "[5]", "result": 125, "unit": "ng/mL"}, {"measurement": "relative bioavailability increase", "setting": "[5]", "result": 3.2, "unit": "fold"}, {"measurement": "solubility at 72 h", "setting": "[4]", "result": "7.5 ± 1.2", "unit": "µg/mL"}, {"measurement": "Tmax", "setting": "[3]; both sexes, Sprague Dawley, plasma, intravenous bolus, 1 mg/rat (4–7 mg/kg), read-out: DTX Tmax", "result": 0.5, "unit": "h"}, {"measurement": "Cmax", "setting": "[3]; both sexes, Sprague Dawley, rat, plasma, iv, 1 mg, intravenous bolus, 1 mg/rat (4–7 mg/kg), read-out: DTX Cmax", "result": 7210, "unit": "ng/mL"}, {"measurement": "DTX AUC", "setting": "[3]; [9]", "result": "93,196 ± 12,626 ng/mL × 24h"}, {"measurement": "Cmax", "setting": "[6]", "result": 292, "unit": "ng/mL"}, {"measurement": "relative bioavailability increase", "setting": "[6]", "result": 4.6, "unit": "fold"}]}
